In PMC12846068, “Insights into Transport Function of the Murine Organic Anion-Transporting Polypeptide OATP1B2 by Comparison with Its Rat and Human Orthologues” (Toxics, 2025):
Entries after “also recorded” stand apart in the source; their conditions may differ. Where two headings read alike, the source gives them in different places.

What was measured:
mOATP1B2 = target: T1, mOATP1B2 (Mus musculus, UniProt Q9JJL3); experiment: cis-inhibition of mOATP1B2-mediated E1S or TCA uptake in HEK293 cells; assay type: cell-based
T1 construct: The full-length mOATP1B2 and rOATP1B2 consist of 689 and 678 amino acids
T1 sequence (Q9JJL3 1-689): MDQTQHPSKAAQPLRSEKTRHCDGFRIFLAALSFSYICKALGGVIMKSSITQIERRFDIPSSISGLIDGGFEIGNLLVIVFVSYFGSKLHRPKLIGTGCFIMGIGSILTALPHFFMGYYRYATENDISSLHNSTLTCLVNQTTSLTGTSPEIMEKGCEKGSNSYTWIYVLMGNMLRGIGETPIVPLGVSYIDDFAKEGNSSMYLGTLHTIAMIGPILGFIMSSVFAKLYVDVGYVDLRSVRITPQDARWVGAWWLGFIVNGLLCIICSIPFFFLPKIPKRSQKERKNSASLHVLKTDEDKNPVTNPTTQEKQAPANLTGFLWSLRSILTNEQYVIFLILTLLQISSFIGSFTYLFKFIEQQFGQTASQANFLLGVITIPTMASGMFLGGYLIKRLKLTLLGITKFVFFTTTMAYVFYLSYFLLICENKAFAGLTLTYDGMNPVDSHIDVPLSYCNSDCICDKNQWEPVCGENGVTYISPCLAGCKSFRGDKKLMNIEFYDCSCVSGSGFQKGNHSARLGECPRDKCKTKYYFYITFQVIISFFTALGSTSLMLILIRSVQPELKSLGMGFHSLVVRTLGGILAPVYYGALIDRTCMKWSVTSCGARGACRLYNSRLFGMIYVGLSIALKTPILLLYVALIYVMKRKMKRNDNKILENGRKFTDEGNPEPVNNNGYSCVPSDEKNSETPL
Method: Inhibition experiments with mOATP1B2 and rOATP2B1 were carried out in triplicate as cis-inhibition. […] Inhibitory effects were calculated as a percentage of the net-uptake rates. […] The means ± average deviation (AD, for N = 2) were calculated from two experiments on two different days. The significance as a p-value was calculated using Student's t-test in Microsoft Excel.

hOATP1B1 [1] = target: T2, hOATP1B1 (Homo sapiens, UniProt Q9Y6L6); details: read-out: IC50 for hOATP1B1, cited from earlier work
T2 sequence (Q9Y6L6 1-691): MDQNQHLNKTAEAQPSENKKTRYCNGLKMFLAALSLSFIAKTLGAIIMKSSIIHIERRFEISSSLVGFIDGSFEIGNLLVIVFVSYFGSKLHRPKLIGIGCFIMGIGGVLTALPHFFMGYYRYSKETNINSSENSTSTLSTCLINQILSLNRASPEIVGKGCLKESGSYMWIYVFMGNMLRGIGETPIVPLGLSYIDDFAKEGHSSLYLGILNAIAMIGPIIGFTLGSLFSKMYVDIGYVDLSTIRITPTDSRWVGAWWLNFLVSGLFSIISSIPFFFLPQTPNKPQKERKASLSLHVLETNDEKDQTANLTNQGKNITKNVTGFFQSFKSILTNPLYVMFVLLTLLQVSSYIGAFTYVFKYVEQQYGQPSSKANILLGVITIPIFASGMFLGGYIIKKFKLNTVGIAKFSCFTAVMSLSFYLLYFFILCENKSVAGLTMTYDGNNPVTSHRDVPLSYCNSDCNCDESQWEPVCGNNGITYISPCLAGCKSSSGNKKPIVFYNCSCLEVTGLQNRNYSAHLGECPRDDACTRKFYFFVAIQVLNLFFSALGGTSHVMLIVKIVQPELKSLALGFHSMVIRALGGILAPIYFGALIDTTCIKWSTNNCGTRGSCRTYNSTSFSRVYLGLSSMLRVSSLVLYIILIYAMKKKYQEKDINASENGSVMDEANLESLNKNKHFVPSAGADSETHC

hOATP1B3 [2] = target: T3, hOATP1B3 (Homo sapiens, UniProt Q9NPD5); details: read-out: IC50 for OATP1B3; cited from earlier work
T3 sequence (Q9NPD5 1-702): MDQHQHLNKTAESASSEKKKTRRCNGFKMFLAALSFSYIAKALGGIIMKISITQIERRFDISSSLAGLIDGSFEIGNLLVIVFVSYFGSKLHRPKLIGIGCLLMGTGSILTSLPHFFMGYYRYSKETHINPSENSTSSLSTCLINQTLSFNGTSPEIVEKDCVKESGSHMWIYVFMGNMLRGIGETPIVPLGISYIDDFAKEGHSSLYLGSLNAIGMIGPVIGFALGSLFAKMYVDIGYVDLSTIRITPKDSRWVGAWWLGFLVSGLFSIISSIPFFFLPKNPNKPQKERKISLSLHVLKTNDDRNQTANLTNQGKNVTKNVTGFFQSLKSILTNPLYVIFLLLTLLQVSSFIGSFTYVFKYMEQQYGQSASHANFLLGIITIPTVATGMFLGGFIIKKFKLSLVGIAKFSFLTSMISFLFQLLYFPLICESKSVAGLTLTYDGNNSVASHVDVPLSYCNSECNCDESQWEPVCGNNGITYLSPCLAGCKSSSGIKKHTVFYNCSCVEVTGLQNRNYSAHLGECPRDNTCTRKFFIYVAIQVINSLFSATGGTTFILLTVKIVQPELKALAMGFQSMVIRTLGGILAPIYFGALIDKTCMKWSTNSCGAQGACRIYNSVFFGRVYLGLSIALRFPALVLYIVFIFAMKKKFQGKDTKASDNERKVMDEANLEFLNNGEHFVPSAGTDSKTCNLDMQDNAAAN

hOATP1B1 [3] = target: T2, hOATP1B1; parameters: expressed in transfected cells; host or cells: HEK-293, stably transfected; details: read-out: Km as substrate of hOATP1B1; cited from earlier work
hOATP1B3 [4] = target: T3, hOATP1B3; parameters: expressed in transfected cells; host or cells: HEK-293, stably transfected; details: read-out: Km as substrate of hOATP1B3; cited from earlier work
[5] = HEK293, 10 µM drug, 1 µM [3H]-E1S, 1 min, read-out: Inhibitory effect on mOATP1B2-mediated E1S uptake
[6] = HEK293, read-out: Inhibitory effect on mOATP1B2-mediated TCA uptake, 10 µM drug, 1 µM [3H]-TCA, 1 min
[7] = HEK293, read-out: Inhibitory effect on mOATP1B2-mediated substrate uptake (summary over E1S and TCA), 10 µM drug, substrates E1S and TCA not separated

SMILES	inhibition at 10 µM (mOATP1B2; [5])	inhibition at 10 µM (mOATP1B2; [6])	inhibition at 10 µM (mOATP1B2; [7])	further results
CCCCC1(CCCC)CN(c2ccccc2)c2cc(SC)c(OCC(=O)N[C@@H](C(=O)N[C@@H](CC)C(=O)O)c3ccc(O)cc3)cc2S(=O)(=O)N1 [Odevixibat, odevixibat]	69%	54%	54 to 82%	
CC(=O)N1CCN(c2ccc(OCC3COC(Cn4ccnc4)(c4ccc(Cl)cc4Cl)O3)cc2)CC1 (stereo not drawn) [Ketoconazole, ketoconazole]	41%	29%	< 50%	IC50 (hOATP1B1 [1]; estradiol-17β-glucuronide as substrate): 1.8 µM
CO[C@H]1/C=C/O[C@@]2(C)Oc3c(C)c(O)c4c(O)c(c(/C=N/N5CCN(C)CC5)c(O)c4c3C2=O)NC(=O)/C(C)=C\C=C\[C@H](C)[C@H](O)[C@@H](C)[C@@H](O)[C@@H](C)[C@H](OC(C)=O)[C@@H]1C [Rifampicin, rifampicin]	44%	53%	≥ 50%	IC50 (mOATP1B2; 1 µM [3H]-E1S, 1 min, read-out: IC50, mOATP1B2-mediated E1S uptake): 9.6 µM; difference in inhibition between mOATP1B2 and rOATP1B2 (mOATP1B2; 10 µM drug): > 30%; IC50 (mOATP1B2; IC50, mOATP1B2-mediated TCA uptake, 1 µM [3H]-TCA, 1 min): 7.7 µM
Clc1ccccc1C(c1ccccc1)(c1ccccc1)n1ccnc1 [Clotrimazole, clotrimazole]	6%	-2%		Inhibitory effect on mOATP1B2-mediated substrate uptake (summary over E1S and TCA) (mOATP1B2; 10 µM drug, substrates E1S and TCA not separated): no inhibitory properties; also recorded: did not inhibit; IC50 (hOATP1B1 [1]): 9 µM
CC(C)CN(C[C@@H](O)[C@H](Cc1ccccc1)NC(=O)O[C@H]1CCOC1)S(=O)(=O)c1ccc(N)cc1 [Amprenavir, amprenavir]	12%	32%	< 50%	IC50 (hOATP1B1 [1]; ref Karlgren et al. (2012) [21]): 16.8 µM; IC50 (hOATP1B3 [2]): 19.1 µM
CC(C)c1nc(N(C)S(C)(=O)=O)nc(-c2ccc(F)cc2)c1/C=C/[C@@H](O)C[C@@H](O)CC(=O)O [Rosuvastatin, rosuvastatin]	50%	52%	≥ 50%	Km (hOATP1B1 [3]): 800 nM; Km (hOATP1B3 [4]): 14.2 µM
